Measured values published in patent US11964971B2, “Methods and compositions for modulating splicing” (Skyhawk Therapeutics, Inc., priority 2019, dated 2024).
Where two headings read alike, the source gives them in different places.

Tests used:
MDR1 (P-gp) = assay: MDCK-MDR1 permeability assay, blood-brain-barrier penetration potential; conditions: dog, MDCK-MDR1, pH 7.4, MDCK-MDR1 Efflux Ratio
MDR1 = assay: in vitro; conditions: dog; for Papp A→B at 120 min, 5 μM: MDCK-MDR1, pH 7.4, MDCK-MDR1: Papp A-B (10^−6, cm/s); for Papp B→A at 120 min, 5 μM: MDCK-MDR1, pH 7.4, MDCK-MDR1: Papp B-A (10^−6, cm/s)
SMN FL and SMN Δ7 = assay: Quantitative splicing assay (SMN) in SMA patient fibroblasts (GM03813); type: cell-based; conditions: Homo sapiens, Fibroblast, read-out: SMN2 Splicing FL EC50 (nM)*
Procedure: Spinal muscular atrophy (SMA) patient fibroblasts (GM03813, Coriell) are plated in 96-well plates at 50,000 cells/well. […] Treated cells are lysed and cDNA synthesized using the Fast Advanced Cells-to-Ct kit (Thermofisher A35378) according to the manufacturer's instructions. 2 μL of each cDNA are used in qPCR reactions. […] Reactions are run in a Quant Studio 6 qPCR instrument with default settings.

SMN protein = SMN protein assay (MSD) in SMA patient fibroblasts (GM03813); type: cell-based, human
Method in brief: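 Absolute SMN protein measured by Mesoscale Discovery assay in lysates, calibrated per plate with SMN standards (1–19.5 μg/ml). Cells: GM03813 SMA fibroblasts, 7000/well, 48 h compound exposure at doses of 2.5 μM down to 0.6 nM.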

[1] = test system: MDR1-MDCK cell monolayers; conditions: dog, MDCK-MDR1, 120 min, 5 μM, pH 7.4

SMILES: CN(C)C(=O)c1cc2cc(O)c(-c3cnc(N(C)[C@H]4CC5CC[C@@H](N5)[C@H]4F)cn3)cc2o1 (single isomer, unassigned) [Compound 7E2]
- efflux ratio at 120 min, 5 μM (MDR1 (P-gp)): 31
- Papp A→B at 120 min, 5 μM (MDR1): 19.2 nm/s
- Papp B→A at 120 min, 5 μM (MDR1): 599 nm/s
- EC50 (SMN FL and SMN Δ7; class symbol): 501 to 10000 nM
- EC50 (SMN protein): 501 to 10000 nM
- MDCK-MDR1: % Recov A-B (%) [1]: 90%
- MDCK-MDR1: % Recov B-A (%) [1]: 93%

SMILES: CN(c1cnc(-c2cc(F)c(-c3ccn(C)c(=O)c3)cc2O)cn1)[C@H]1C[C@@H]2CCCC(N2)[C@H]1F (single isomer, unassigned) [Compound 12E2]
- efflux ratio at 120 min, 5 μM (MDR1 (P-gp)): 27
- Papp A→B at 120 min, 5 μM (MDR1): 21.4 nm/s
- Papp B→A at 120 min, 5 μM (MDR1): 574 nm/s
- EC50 (SMN FL and SMN Δ7; class symbol): 501 to 10000 nM
- EC50 (SMN protein): 16 to 50 nM
- MDCK-MDR1: % Recov A-B (%) [1]: 72%
- MDCK-MDR1: % Recov B-A (%) [1]: 88%

SMILES: CN(c1cnc(-c2cc(F)c(-c3ccn(C)c(=O)c3)cc2O)cn1)[C@H]1C[C@@H]2CCC(N2)[C@H]1F (single isomer, unassigned) [Compound 13E2]
- efflux ratio at 120 min, 5 μM (MDR1 (P-gp)): 21
- Papp A→B at 120 min, 5 μM (MDR1): 19.7 nm/s
- Papp B→A at 120 min, 5 μM (MDR1): 408 nm/s
- EC50 (SMN FL and SMN Δ7; given as number): 398 nM
- EC50 (SMN protein): 0.01 to 15 nM
- MDCK-MDR1: % Recov A-B (%) [1]: 80%
- MDCK-MDR1: % Recov B-A (%) [1]: 87%

SMILES: CN(c1cnc(-c2ccc(-c3cnn(C)c3)cc2O)cn1)[C@@H]1CC2CC[C@H](N2)[C@@H]1F (single isomer, unassigned) [Compound 16E1]
- efflux ratio at 120 min, 5 μM (MDR1 (P-gp)): 4
- Papp A→B at 120 min, 5 μM (MDR1): 56.2 nm/s
- Papp B→A at 120 min, 5 μM (MDR1): 206 nm/s
- EC50 (SMN FL and SMN Δ7; class symbol): 501 to 10000 nM
- EC50 (SMN protein): 16 to 50 nM
- MDCK-MDR1: % Recov A-B (%) [1]: 45%
- MDCK-MDR1: % Recov B-A (%) [1]: 79%

SMILES: CN(c1cnc(-c2ccc(-c3cnn(C)c3)cc2O)cn1)[C@H]1C[C@@H]2CCC(N2)[C@H]1F (single isomer, unassigned) [Compound 16E2]
- efflux ratio at 120 min, 5 μM (MDR1 (P-gp)): 4
- Papp A→B at 120 min, 5 μM (MDR1): 76.8 nm/s
- Papp B→A at 120 min, 5 μM (MDR1): 284 nm/s
- EC50 (SMN FL and SMN Δ7; class symbol): 101 to 500 nM
- EC50 (SMN protein): 16 to 50 nM
- MDCK-MDR1: % Recov A-B (%) [1]: 54%
- MDCK-MDR1: % Recov B-A (%) [1]: 86%

SMILES: COc1cc(-c2ccc(-c3cnc(N(C)[C@@H]4CC5CC[C@H](N5)[C@@H]4F)cn3)c(O)c2)cnn1 (single isomer, unassigned) [Compound 26E1]
- efflux ratio at 120 min, 5 μM (MDR1 (P-gp)): 5
- Papp A→B at 120 min, 5 μM (MDR1): 50.6 nm/s
- Papp B→A at 120 min, 5 μM (MDR1): 244 nm/s
- EC50 (SMN FL and SMN Δ7; class symbol): 101 to 500 nM
- EC50 (SMN protein): 501 to 10000 nM
- MDCK-MDR1: % Recov A-B (%) [1]: 45%
- MDCK-MDR1: % Recov B-A (%) [1]: 74%

SMILES: COc1cc(-c2ccc(-c3cnc(N(C)[C@H]4C[C@@H]5CCC(N5)[C@H]4F)cn3)c(O)c2)cnn1 (single isomer, unassigned) [Compound 26E2]
- efflux ratio at 120 min, 5 μM (MDR1 (P-gp)): 8
- Papp A→B at 120 min, 5 μM (MDR1): 31.6 nm/s
- Papp B→A at 120 min, 5 μM (MDR1): 239 nm/s
- EC50 (SMN FL and SMN Δ7; class symbol): 101 to 500 nM
- EC50 (SMN protein): 16 to 50 nM
- MDCK-MDR1: % Recov A-B (%) [1]: 41%
- MDCK-MDR1: % Recov B-A (%) [1]: 67%

SMILES: CN(c1cnc(-c2ccc(-c3cn[nH]c3)cc2O)cn1)[C@H]1C[C@@H]2CCC(N2)[C@@H]1F (single isomer, unassigned) [Compound 27E2]
- efflux ratio at 120 min, 5 μM (MDR1 (P-gp)): 9
- Papp A→B at 120 min, 5 μM (MDR1): 44.5 nm/s
- Papp B→A at 120 min, 5 μM (MDR1): 406 nm/s
- EC50 (SMN FL and SMN Δ7; class symbol): 101 to 500 nM
- EC50 (SMN protein): 16 to 50 nM
- MDCK-MDR1: % Recov A-B (%) [1]: 80%
- MDCK-MDR1: % Recov B-A (%) [1]: 85%

SMILES: CN(c1cnc(-c2ccc(-c3cn[nH]c3)cc2O)cn1)[C@H]1C[C@]2(C)CCC(N2)[C@H]1F (single isomer, unassigned) [Compound 28E1]
- efflux ratio at 120 min, 5 μM (MDR1 (P-gp)): 15
- Papp A→B at 120 min, 5 μM (MDR1): 32.3 nm/s
- Papp B→A at 120 min, 5 μM (MDR1): 481 nm/s
- EC50 (SMN FL and SMN Δ7; class symbol): 101 to 500 nM
- EC50 (SMN protein): 0.01 to 15 nM
- MDCK-MDR1: % Recov A-B (%) [1]: 66%
- MDCK-MDR1: % Recov B-A (%) [1]: 80%

SMILES: CN(c1cnc(-c2cc(F)c(-c3cnn(CF)c3)cc2O)cn1)[C@H]1C[C@@H]2CCC(N2)[C@H]1F (single isomer, unassigned) [Compound 29E2]
- efflux ratio at 120 min, 5 μM (MDR1 (P-gp)): 3
- Papp A→B at 120 min, 5 μM (MDR1): 55.9 nm/s
- Papp B→A at 120 min, 5 μM (MDR1): 183 nm/s
- EC50 (SMN FL and SMN Δ7; class symbol): 51 to 100 nM
- EC50 (SMN protein): 16 to 50 nM
- MDCK-MDR1: % Recov A-B (%) [1]: 31%
- MDCK-MDR1: % Recov B-A (%) [1]: 50%

SMILES: COc1cc(-c2cc(O)c(-c3cnc(N(C)[C@H]4C[C@@H]5CCC(N5)[C@H]4F)cn3)cc2F)ncn1 (single isomer, unassigned) [Compound 34E2]
- efflux ratio at 120 min, 5 μM (MDR1 (P-gp)): 2
- Papp A→B at 120 min, 5 μM (MDR1): 37.6 nm/s
- Papp B→A at 120 min, 5 μM (MDR1): 72.3 nm/s
- EC50 (SMN FL and SMN Δ7; class symbol): 51 to 100 nM
- EC50 (SMN protein): 16 to 50 nM
- MDCK-MDR1: % Recov A-B (%) [1]: 21%
- MDCK-MDR1: % Recov B-A (%) [1]: 66%

SMILES: CN(c1cnc(-c2cc(F)c(-c3cn[nH]c3)cc2O)cn1)[C@@H]1CC2CC[C@H](N2)[C@@H]1F (single isomer, unassigned) [Compound 40E1]
- efflux ratio at 120 min, 5 μM (MDR1 (P-gp)): 6
- Papp A→B at 120 min, 5 μM (MDR1): 66.3 nm/s
- Papp B→A at 120 min, 5 μM (MDR1): 392 nm/s
- EC50 (SMN FL and SMN Δ7; class symbol): 51 to 100 nM
- EC50 (SMN protein): 16 to 50 nM
- MDCK-MDR1: % Recov A-B (%) [1]: 54%
- MDCK-MDR1: % Recov B-A (%) [1]: 75%

SMILES: CN(c1cnc(-c2cc(F)c(-c3cn[nH]c3)cc2O)cn1)[C@H]1C[C@@H]2CCC(N2)[C@H]1F (single isomer, unassigned) [Compound 40E2]
- efflux ratio at 120 min, 5 μM (MDR1 (P-gp)): 5
- Papp A→B at 120 min, 5 μM (MDR1): 73.3 nm/s
- Papp B→A at 120 min, 5 μM (MDR1): 371 nm/s
- EC50 (SMN FL and SMN Δ7; class symbol): 16 to 50 nM
- EC50 (SMN protein): 0.01 to 15 nM
- MDCK-MDR1: % Recov A-B (%) [1]: 59%
- MDCK-MDR1: % Recov B-A (%) [1]: 72%

SMILES: CN(c1cnc(-c2ccc(-c3cnn(CF)c3)cc2O)cn1)[C@@H]1CC2CC[C@H](N2)[C@@H]1F (single isomer, unassigned) [Compound 42E1]
- efflux ratio at 120 min, 5 μM (MDR1 (P-gp)): 6
- Papp A→B at 120 min, 5 μM (MDR1): 53.8 nm/s
- Papp B→A at 120 min, 5 μM (MDR1): 304 nm/s
- EC50 (SMN FL and SMN Δ7; class symbol): 51 to 100 nM
- EC50 (SMN protein): 16 to 50 nM
- MDCK-MDR1: % Recov A-B (%) [1]: 48%
- MDCK-MDR1: % Recov B-A (%) [1]: 59%

SMILES: CN(c1cnc(-c2ccc(-c3ccn(C)c(=O)c3)cc2O)cn1)[C@@H]1CC2CC[C@H](N2)[C@@H]1F (single isomer, unassigned) [Compound 45E1]
- efflux ratio at 120 min, 5 μM (MDR1 (P-gp)): 37
- Papp A→B at 120 min, 5 μM (MDR1): 13 nm/s
- Papp B→A at 120 min, 5 μM (MDR1): 476 nm/s
- EC50 (SMN FL and SMN Δ7; class symbol): 51 to 100 nM
- EC50 (SMN protein): 101 to 500 nM
- MDCK-MDR1: % Recov A-B (%) [1]: 88%
- MDCK-MDR1: % Recov B-A (%) [1]: 85%

SMILES: COc1cc(-c2ccc(-c3cnc(N(C)[C@@H]4CC5CC[C@H](N5)[C@@H]4F)cn3)c(O)c2)ncn1 (single isomer, unassigned) [Compound 48E1]
- efflux ratio at 120 min, 5 μM (MDR1 (P-gp)): 2
- Papp A→B at 120 min, 5 μM (MDR1): 41.5 nm/s
- Papp B→A at 120 min, 5 μM (MDR1): 69 nm/s
- EC50 (SMN FL and SMN Δ7; class symbol): 101 to 500 nM
- EC50 (SMN protein): 16 to 50 nM
- MDCK-MDR1: % Recov A-B (%) [1]: 21%
- MDCK-MDR1: % Recov B-A (%) [1]: 44%

SMILES: CNC(=O)/C=C/c1cc(O)c(-c2cnc(N(C)[C@H]3C[C@@H]4CCC(N4)[C@H]3F)cn2)cc1F (single isomer, unassigned) [Compound 60E2]
- efflux ratio at 120 min, 5 μM (MDR1 (P-gp)): 24
- Papp A→B at 120 min, 5 μM (MDR1): 24.8 nm/s
- Papp B→A at 120 min, 5 μM (MDR1): 601 nm/s
- EC50 (SMN FL and SMN Δ7; class symbol): 51 to 100 nM
- EC50 (SMN protein): 0.01 to 15 nM
- MDCK-MDR1: % Recov A-B (%) [1]: 89%
- MDCK-MDR1: % Recov B-A (%) [1]: 89%

SMILES: COc1cc(-c2ccc(-c3cnc(N(C)[C@@H]4CC5CC(F)(F)[C@@H](C4)N5)cn3)c(O)c2)cnn1 (single isomer, unassigned) [Compound 68E2]
- efflux ratio at 120 min, 5 μM (MDR1 (P-gp)): 5
- Papp A→B at 120 min, 5 μM (MDR1): 98.1 nm/s
- Papp B→A at 120 min, 5 μM (MDR1): 472 nm/s
- EC50 (SMN FL and SMN Δ7; class symbol): 501 to 10000 nM
- EC50 (SMN protein): 501 to 10000 nM
- MDCK-MDR1: % Recov A-B (%) [1]: 66%
- MDCK-MDR1: % Recov B-A (%) [1]: 89%
